In ChEMBL document CHEMBL2074304, “Primary active transport of peptidic endothelin antagonists by rat hepatic canalicular membrane” (J Pharmacol Exp Ther, 1999):
Square brackets hold non-standard residues; d marks the D form. Peptide text beside a SMILES is read from it. * marks the point of attachment. dGly(2-thienyl) = N[C@@H](C(=O)O)c1cccs1; Moc = COC(=O)*

How the values were obtained:
Assay type in all cases: functional, cell membranes, Sprague-Dawley, Bile canalicular membrane vesicle
[1] = biological target: T1, ATP-binding cassette sub-family C member 2 (Rattus norvegicus, UniProt Q63120); experiment: TP_TRANSPORTER: inhibition of BQ-123 uptake in bile canalicular membrane vesicles from SD rat
[2] = biological target: T1, ATP-binding cassette sub-family C member 2; experiment: TP_TRANSPORTER: inhibition of BQ-485 uptake in bile canalicular membrane vesicles from SD rat
[3] = substrate: CC(C)C[C@H](NC(=O)N1CCCCCC1)C(=O)N[C@H](Cc1c[nH]c2ccccc12)C(=O)N[C@H](Cc1c[nH]c2ccccc12)C(=O)O; experiment: (§1) TP_TRANSPORTER: uptake in bile canalicular membrane vesicles from SD rat
[4] = substrate: [H][C@@]12CCCN1C(=O)[C@@H](CC(=O)O)NC(=O)[C@@H](Cc1c[nH]c3ccccc13)NC(=O)[C@H](CC(C)C)NC(=O)[C@@H](c1cccs1)NC2=O; experiment: as §1
[5] = substrate: CC(C)C[C@@H]1NC(=O)[C@@H](C(C)C)NC(=O)[C@@H]2CCCN2C(=O)[C@@H](CC(=O)O)NC(=O)[C@@H](Cc2c[nH]c3ccccc23)NC1=O; experiment: as §1

Ki [1]	Molecule	further results
40 µM	CC(C)C[C@H](NC(=O)N1CCCCCC1)C(=O)N[C@H](Cc1c[nH]c2ccccc12)C(=O)NC(C)CC(=O)O (stereo not given in full)	
	CC(C)C[C@@H]1NC(=O)[C@@H](C(C)C)NC(=O)[C@@H]2CCCN2C(=O)[C@@H](CC(=O)O)NC(=O)[C@@H](Cc2c[nH]c3ccccc23)NC1=O [BQ-123] (cyclo(L[dW][dD]P[dV]))	Ki [2]: 84.1 µM
65.5 µM	CC(C)C[C@@H]1NC(=O)[C@@H](c2cccs2)NC(=O)[C@@H]2CCCN2C(=O)[C@@H](CC(=O)O)NC(=O)[C@@H](Cc2c[nH]c3ccccc23)NC1=O (cyclo(L[dW][dD]P[dGly(2-thienyl)]))	
85.4 µM	CC(C)C[C@@H]1NC(=O)[C@@H](C(C)C)NC(=O)[C@@H]2C[C@@H](OC(=O)[C@H](CCCCN)N(C)C)CN2C(=O)[C@@H](CC(=O)O)NC(=O)[C@@H](Cc2c[nH]c3ccccc23)NC1=O	
54.1 µM	COC(=O)n1cc(C[C@H]2NC(=O)[C@H](CC(C)C)NC(=O)[C@@H](C(C)C)NC(=O)[C@@H]3CCCN3C(=O)[C@@H](CC(=O)O)NC2=O)c2ccccc21 (cyclo(L[dW](Moc)[dD]P[dV]))	
1.01 µM	CC(C)C[C@@H]1NC(=O)[C@@H](C(C)C)NC(=O)[C@@H]2C[C@H](OC(=O)[C@@H](N)CCCNC(=N)N)CN2C(=O)[C@@H](CC(=O)O)NC(=O)[C@@H](Cc2c[nH]c3ccccc23)NC1=O	
8.32 µM	CC(C)C[C@H](NC(=O)N1CCCCCC1)C(=O)N[C@H](Cc1c[nH]c2ccccc12)C(=O)N[C@H](Cc1c[nH]c2ccccc12)C(=O)O	
	ATP-binding cassette sub-family C member 2 (Rattus norvegicus) (protein) MDKFCNSTFWDLSLLESPEADLPLCFEQTVLVWIPLGFLWLLAPWQLYSVYRSRTKRSSITKFYLAKQVFVVFLLILAAIDLSLALTEDTGQATVPPVRYTNPILYLCTWLLVLAVQHSRQWCVRKNSWFLSLFWILSVLCGVFQFQTLIRALLKDSKSNMAYSYLFFVSYGFQIVLLILTAFSGPSDSTQTPSVTASFLSSITFSWYDRTVLKGYKHPLTLEDVWDIDEGFKTRSVTSKFEAAMTKDLQKARQAFQRRLQKSQRKPEATLHGLNKKQSQSQDVLVLEEAKKKSEKTTKDYPKSWLIKSLFKTFHVVILKSFILKLIHDLLVFLNPQLLKLLIGFVKSSNSYVWFGYICAILMFAVTLIQSFCLQSYFQHCFVLGMCVRTTVMSSIYKKALTLSNLARKQYTIGETVNLMSVDSQKLMDATNYMQLVWSSVIQITLSIFFLWRELGPSILAGVGVMVLLIPVNGVLATKIRNIQVQNMKNKDKRLKIMNEILSGIKILKYFAWEPSFQEQVQGIRKKELKNLLRFGQLQSLLIFILQITPILVSVVTFSVYVLVDSANVLNAEKAFTSITLFNILRFPLSMLPMVTSSILQASVSVDRLERYLGGDDLDTSAIRRVSNFDKAVKFSEASFTWDPDLEATIQDVNLDIKPGQLVAVVGTVGSGKSSLVSAMLGEMENVHGHITIQGSTAYVPQQSWIQNGTIKDNILFGSEYNEKKYQQVLKACALLPDLEILPGGDMAEIGEKGINLSGGQKQRVSLARAAYQDADIYILDDPLSAVDAHVGKHIFNKVVGPNGLLAGKTRIFVTHGIHFLPQVDEIVVLGKGTILEKGSYRDLLDKKGVFARNWKTFMKHSGPEGEATVNNDSEAEDDDDGLIPTMEEIPEDAASLAMRRENSLRRTLSRSSRSSSRRGKSLKNSLKIKNVNVLKEKEKEVEGQKLIKKEFVETGKVKFSIYLKYLQAVGWWSILFIILFYGLNNVAFIGSNLWLSAWTSDSDNLNGTNNSSSHRDMRIGVFGALGLAQGICLLISTLWSIYACRNASKALHGQLLTNILRAPMRFFDTTPTGRIVNRFSGDISTVDDLLPQTLRSWMMCFFGIAGTLVMICMATPVFAIIIIPLSILYISVQVFYVATSRQLRRLDSVTKSPIYSHFSETVTGLPIIRAFEHQQRFLAWNEKQIDINQKCVFSWITSNRWLAIRLELVGNLVVFCSALLLVIYRKTLTGDVVGFVLSNALNITQTLNWLVRMTSEAETNIVAVERISEYINVENEAPWVTDKRPPADWPRHGEIQFNNYQVRYRPELDLVLKGITCNIKSGEKVGVVGRTGAGKSSLTNCLFRILESAGGQIIIDGIDVASIGLHDLRERLTIIPQDPILFSGSLRMNLDPFNKYSDEEVWRALELAHLRSFVSGLQLGLLSEVTEGGDNLSIGQRQLLCLGRAVLRKSKILVLDEATAAVDLETDSLIQTTIRKEFSQCTVITIAHRLHTIMDSDKIMVLDNGKIVEYGSPEELLSNRGSFYLMAKEAGIENVNHTEL	Km [3]: 6.46 µM; Km [4]: 15.1 µM; Km [5]: 97.8 µM
